According to ChEMBL document CHEMBL5230158, “Artapilosines A and B, Unusual Phenanthrene Derivatives Related to Aporphine Alkaloids from Artabotrys pilosus” (J Nat Prod, 2021):

Key:
[1] = tested on: Human immunodeficiency virus 1; test: Antiviral activity against HIV-1 IIIB infected in human C8166 cells assessed as inhibition of reverse transcriptase mediated cytopathic effect incubated for 3 days by MTT assay; type: functional, organism-based; conditions: Human immunodeficiency virus 1, IIIB, C8166, 72 h
[2] = Cytotoxicity against human C8166 cells assessed as reduction in cell viability incubated for 3 days by MTT assay; type: toxicity, cell-based; conditions: time 3 day
[3] = Therapeutic index, ratio of CC50 for cytotoxicity against human C8166 cells to EC50 for antiviral activity against HIV-1 IIIB infected in human C8166 cells; type: toxicity, cell-based; conditions: read-out: Ratio CC50/EC50

Which IC50 [1] does the source give for CC(=O)N1CCc2cc3c(c4c2[C@H]1Cc1ccccc1-4)OCO3 here?
Its IC50 is over 40 µM.

What does the source list for OCCc1cc2c(c3c1ccc1ccccc13)OCO2?
EC50 [1]: 0.125 µM; CC50 at 72 h [2]: 838 µM; selectivity ratio [3]: 6690

What does the source list for O[C@H]1Cc2cc3c(c4c2c1cc1ccccc14)OCO3?
EC50 [1]: 0.0209 µM; CC50 at 72 h [2]: 3090 µM; selectivity ratio [3]: 148000

For c1ccc2c(c1)C[C@H]1NCCc3cc4c(c-2c31)OCO4 [ANONAINE], which IC50 [1] is on record?
Its IC50 is over 40 µM.

With Cc1cn([C@H]2C[C@H](N=[N+]=[N-])[C@@H](CO)O2)c(=O)[nH]c1=O [ZIDOVUDINE] as the molecule, how does the EC50 [1] read?
Its EC50 is 0.0239 µM.

And the CC50 at 72 h [2]?
The CC50 at 72 h was 3990 µM.

What about the selectivity ratio [3] of the same molecule?
Its selectivity ratio is 167000.
